Experimental data from article PMC5155152, “A diverse intrinsic antibiotic resistome from a cave bacterium” (Nature Communications, 2016).

Columns and labels:
Assay type in all cases: biochemical, Paenibacillus sp. LC231
AAC(6′)-34 = tested on: T1, AAC(6′)-34; experiment: CoA liberation with DTDP, steady-state kinetics; conditions: 35 μM sisomicin, 25 mM MES pH 6.0, 1 mM EDTA, 25 °C
T1 construct: recombinant in E. coli BL21(DE3), pET vector, Ni-NTA purified

CpaA = tested on: T2, CpaA; experiment: spectrophotometric steady-state kinetics; conditions: 5 μM capreomycin, 50 mM HEPES pH 7.5, 150 mM NaCl, 0.1 mM EDTA, room temperature
T2 construct: recombinant in E. coli BL21(DE3), pET vector, Ni-NTA purified

VatI = tested on: T3, VatI; experiment: steady-state kinetics; conditions: 100 μM flopristin, 50 mM HEPES pH 7.5, 150 mM NaCl, 0.1 mM EDTA, 25 °C
T3 construct: recombinant in E. coli BL21(DE3), pET vector, Ni-NTA purified

**Q.** With `CC(=O)SCCNC(=O)CCNC(=O)[C@H](O)C(C)(C)COP(=O)(O)OP(=O)(O)OC[C@H]1O[C@@H](n2cnc3c(N)ncnc32)[C@H](O)[C@@H]1OP(=O)(O)O` [acetyl-CoA] as the compound, how does the Km (AAC(6′)-34) read?
**A.** 220 ± 26 µM

**Q.** What about the Km (CpaA) of the same compound?
**A.** 39 ± 3 µM

**Q.** What about the Km (VatI) of the same compound?
**A.** 48 ± 3 µM
